Experimental data: US20160108039A1, “TRIAZOLOPYRIDINES AS THROMBIN INHIBITORS FOR THE TREATMENT OF THROMBOEMBOLIC DISEASES” (BAYER PHARMA AKTIENGESELLSCHAFT, priority 2013, published 2016)

Key:
thrombin [1] = target: T1, thrombin (Homo sapiens, UniProt P00734); experiment: Measurement of the thrombin inhibition in buffer; type: biochemical; conditions: human thrombin 0.06 nmol/l in Tris buffer pH 7.4, 22° C., substrate Boc-Asp(OBzl)-Pro-Arg-AMC; in some cases means of individual determinations
Experimental: To determine the thrombin inhibition of the substances listed above, a biochemical test system is constructed in which the conversion of a thrombin substrate is used for determining the enzymatic activity of human thrombin. Here, thrombin cleaves aminomethylcoumarin, which is measured fluorescently, from the peptic substrate. The determinations are carried out in microtitre plates.
Substances to be tested are dissolved in various concentrations in dimethyl sulphoxide and incubated for 15 min with human thrombin (0.06 nmol/l dissolved in 50 mmol/l of Tris buffer [C,C,C-tris(hydroxymethyl)aminomethane], 100 mmol/l of sodium chloride, 0.1% BSA [bovine serum albumin], pH 7.4) at 22° C. The substrate (5 μmol/l Boc-Asp(OBzl)-Pro-Arg-AMC from Bachem) is then added. After 30 min of incubation, the sample is excited at a wavelength of 360 nm and the emission is measured at 460 nm. The measured emissions of the test mixtures with test substance are compared to the control mixtures without test substance (only dimethyl sulphoxide instead of test substance in dimethyl sulphoxide) and IC50 values are calculated from the concentration/activity relationships. Representative activity data from this test are given in Table 1 below (in some cases as means of individual determinations): […]

thrombin [2] = target: T1, thrombin; experiment: Thrombin-inhibitory activity in plasma samples (ecarin-activated); type: biochemical; conditions: citrate plasma, ecarin activation, fluorogenic thrombin substrate; read at about 70% of maximum signal (about 12 min); in some cases means
Experimental: To determine the inhibition of thrombin in plasma samples, plasma prothrombinase is activated by ecarin. Thrombin activity and/or its inhibition by potential inhibitors is/are then measured fluorescently by addition of a substrate.
The substances to be tested are dissolved in various concentrations in dimethyl sulphoxide and diluted with water. In white 96-well flat-bottomed plates, 20 μl of substance dilution are mixed with 20 μl of ecarin solution (ecarin reagent, from Sigma E-0504, final concentration 20 mU per reaction) in Ca buffer (200 mM Hepes+560 mM sodium chloride+10 mM calcium chloride+0.4% PEG) or with 20 μl of Ca buffer (as unstimulated control). Furthermore, 20 μl of fluorogenic thrombin substrate (from Bachem 1-1120, final concentration 50 μmol/l) and 20 μl of citrate plasma (from Octapharma) are added, and the mixture is homogenized well. The plate is measured in a SpectraFluorplus Reader using a 360 nm excitation filter and a 465 nm emission filter every minute over 20 minutes. […] Representative activity data from this test are given in Table 2 below (in some cases as means of individual determinations): […]

Structure (SMILES) | IC50 (thrombin [1]) [nM] | IC50 (thrombin [2]) [nM]
COc1cc(C(=O)N2CC(C)(C)OCC2(C)CO)cn2nc(NCc3cccc(Cl)c3)nc12 (single isomer, unassigned) [Example 9, {2-[(3-Chlorobenzyl)amino]-8-methoxy[1,2,4]triazolo[1,5-a]pyridin-6-yl}[5-(hydroxymethyl)-2,2,5-trimethylmorpholin-4-yl]methanone] | 55 | 79
COc1cc(C(=O)N2CC(C)(C)OCC2(C)CO)cn2nc(NCc3cccc(Cl)c3)nc12 (single isomer, unassigned) [Example 10, {2-[(3-Chlorobenzyl)amino]-8-methoxy[1,2,4]triazolo[1,5-a]pyridin-6-yl}[5-(hydroxymethyl)-2,2,5-trimethylmorpholin-4-yl]methanone] | 39 | 41
COc1cc(C(=O)N2CC(C)(C)OCC2CF)cn2nc(NCc3cccc(Cl)c3)nc12 (single isomer, unassigned) [Example 14, {2-[(3-Chlorobenzyl)amino]-8-methoxy[1,2,4]triazolo[1,5-a]pyridin-6-yl}[5-(fluoromethyl)-2,2-dimethylmorpholin-4-yl]methanone] | 24 | 57
COc1cc(C(=O)N2CC(C)OCC2CCO)cn2nc(NCc3cccc(Cl)c3)nc12 (single isomer, unassigned) [Example 16, {2-[(3-Chlorobenzyl)amino]-8-methoxy[1,2,4]triazolo[1,5-a]pyridin-6-yl}[5-(2-hydroxyethyl)-2-methylmorpholin-4-yl]methanone] | 52 | 77
COc1cc(C(=O)N2CC(C)OCC2CCO)cn2nc(NCc3cccc(Cl)c3)nc12 (single isomer, unassigned) [Example 17, {2-[(3-Chlorobenzyl)amino]-8-methoxy[1,2,4]triazolo[1,5-a]pyridin-6-yl}[5-(2-hydroxyethyl)-2-methylmorpholin-4-yl]methanone] | 95 | 119
COc1cc(C(=O)N2CC(C)OCC2CCO)cn2nc(NC(CF)c3cccc(Cl)c3)nc12 (single isomer, unassigned) [Example 18, (2-{[1-(3-Chlorophenyl)-2-fluoroethyl]amino}-8-methoxy[1,2,4]triazolo[1,5-a]pyridin-6-yl) [5-(2-hydroxyethyl)-2-methylmorpholin-4-yl]methanone] | 27 | 15
COc1cc(C(=O)N2CC(C)OCC2CCO)cn2nc(NC(CF)c3cccc(Cl)c3)nc12 (single isomer, unassigned) [Example 19, (2-{[1-(3-Chlorophenyl)-2-fluoroethyl]amino}-8-methoxy[1,2,4]triazolo[1,5-a]pyridin-6-yl) [5-(2-hydroxyethyl)-2-methylmorpholin-4-yl]methanone] | 11 | 10
COc1cc(C(=O)N2CC(C)OCC23CC(O)C3)cn2nc(NCc3cccc(Cl)c3)nc12 (single isomer, unassigned) [Example 20, {2-[(3-Chlorobenzyl)amino]-8-methoxy[1,2,4]triazolo[1,5-a]pyridin-6-yl}[(cis)-2-hydroxy-7-methyl-8-oxa-5-azaspiro[3.5]non-5-yl]methanone] | 35 | 70
COc1cc(C(=O)N2CC(C)OCC23CC(O)C3)cn2nc(NCc3cccc(Cl)c3)nc12 (single isomer, unassigned) [Example 21, {2-[(3-Chlorobenzyl)amino]-8-methoxy[1,2,4]triazolo[1,5-a]pyridin-6-yl}[(trans)-2-hydroxy-7-methyl-8-oxa-5-azaspiro[3.5]non-5-yl]methanone] | 43 | 67
COc1cc(C(=O)N2CC(C)OCC23CC(O)C3)cn2nc(NC(CF)c3cccc(Cl)c3)nc12 (single isomer, unassigned) [Example 22, (2-{[1-(3-Chlorophenyl)-2-fluoroethyl]amino}-8-methoxy[1,2,4]triazolo[1,5-a]pyridin-6-yl)[(cis)-2-hydroxy-7-methyl-8-oxa-5-azaspiro[3.5]non-5-yl]methanone] | 26 | 86

Second part, the compound after the results:

IC50 (thrombin [1]) [nM] | IC50 (thrombin [2]) [nM] | Structure (SMILES)
29 | 34 | COc1cc(C(=O)N2CC(C)OCC23CC(O)C3)cn2nc(NC(CF)c3cccc(Cl)c3)nc12 (single isomer, unassigned) [Example 23, (2-{[1-(3-Chlorophenyl)-2-fluoroethyl]amino}-8-methoxy[1,2,4]triazolo[1,5-a]pyridin-6-yl)[(cis)-2-hydroxy-7-methyl-8-oxa-5-azaspiro[3.5]non-5-yl]methanone]
9.9 | 19 | COc1cc(C(=O)N2CC(C)OCC23CC(O)C3)cn2nc(NC(CF)c3cccc(Cl)c3)nc12 (single isomer, unassigned) [Example 24, (2-{[1-(3-Chlorophenyl)-2-fluoroethyl]amino}-8-methoxy[1,2,4]triazolo[1,5-a]pyridin-6-yl) [(trans)-2-hydroxy-7-methyl-8-oxa-5-azaspiro[3.5]non-5-yl]methanone]
28 | 55 | COc1cc(C(=O)N2CC(C)OCC23CC(O)C3)cn2nc(NC(CF)c3cccc(Cl)c3)nc12 (single isomer, unassigned) [Example 25, (2-{[1-(3-Chlorophenyl)-2-fluoroethyl]amino}-8-methoxy[1,2,4]triazolo[1,5-a]pyridin-6-yl) [(trans)-2-hydroxy-7-methyl-8-oxa-5-azaspiro[3.5]non-5-yl]methanone]
62 | 56 | COc1cc(C(=O)N2CC(C)OCC2(C)C)cn2nc(NCc3cccc(Cl)c3)nc12 (single isomer, unassigned) [Example 27]
54 | 67 | COc1cc(C(=O)N2CC(C)OCC2(C)CO)cn2nc(NCc3cccc(Cl)c3)nc12 (single isomer, unassigned) [Example 29, {2-[(3-Chlorobenzyl)amino]-8-methoxy[1,2,4]triazolo[1,5-a]pyridin-6-yl}[5-(hydroxymethyl)-2,5-dimethylmorpholin-4-yl]methanone]
45 | 51 | COc1cc(C(=O)N2CC(C)OCC2(C)CO)cn2nc(NCc3cccc(Cl)c3)nc12 (single isomer, unassigned) [Example 30, {2-[(3-Chlorobenzyl)amino]-8-methoxy[1,2,4]triazolo[1,5-a]pyridin-6-yl}[5-(hydroxymethyl)-2,5-dimethylmorpholin-4-yl]methanone]
4.5 | 11 | COc1cc(C(=O)N2CC(C)(CCO)OCC2(C)C)cn2nc(NCc3cccc(Cl)c3)nc12 (single isomer, unassigned) [Example 33, {2-[(3-Chlorobenzyl)amino]-8-methoxy[1,2,4]triazolo[1,5-a]pyridin-6-yl}[2-(2-hydroxyethyl)-2,5,5-trimethylmorpholin-4-yl]methanone]
3.9 | 19 | COc1cc(C(=O)N2CC(C)(CC(C)O)OCC2(C)C)cn2nc(NCc3cccc(Cl)c3)nc12 (single isomer, unassigned) [Example 34, {2-[(3-Chlorobenzyl)amino]-8-methoxy[1,2,4]triazolo[1,5-a]pyridin-6-yl}[2-(2-hydroxypropyl)-2,5,5-trimethylmorpholin-4-yl]methanone]
2.4 | 8.7 | COc1cc(C(=O)N2CC(C)(CC(C)O)OCC2(C)C)cn2nc(NCc3cccc(Cl)c3)nc12 (single isomer, unassigned) [Example 35, {2-[(3-Chlorobenzyl)amino]-8-methoxy[1,2,4]triazolo[1,5-a]pyridin-6-yl}[2-(2-hydroxypropyl)-2,5,5-trimethylmorpholin-4-yl]methanone]
54 | 325 | COc1cc(C(=O)N2CC(C)(CC(C)O)OCC2(C)C)cn2nc(NCc3cccc(Cl)c3)nc12 (single isomer, unassigned) [Example 36, {2-[(3-Chlorobenzyl)amino]-8-methoxy[1,2,4]triazolo[1,5-a]pyridin-6-yl}[2-(2-hydroxypropyl)-2,5,5-trimethylmorpholin-4-yl]methanone]
67 | 112 | COc1cc(C(=O)N2CC(C)(CC(C)O)OCC2(C)C)cn2nc(NCc3cccc(Cl)c3)nc12 (single isomer, unassigned) [Example 37, {2-[(3-Chlorobenzyl)amino]-8-methoxy[1,2,4]triazolo[1,5-a]pyridin-6-yl}[2-(2-hydroxypropyl)-2,5,5-trimethylmorpholin-4-yl]methanone]
